Source: US7462345B2, “Radionuclide labeling of vitamin B12 and coenzymes thereof” (Mayo Foundation for Medical Education and Research, priority 1995, dated 2008)

Experiments:
[1] = pH of 1000 μg/10 ml normal saline solutions; assay type: physicochemical; details: 1000 μg in 10 ml normal saline, no buffers, room temperature
Method: Under dim light, 1000 μg of the non-labeled methyl-, adenosyl-, and cyanocobalamin-b-(4-aminobutyl)amide-DTPA, as well as 1000 μg of cyanocobalamin and DTPA (Sigma, St. Louis, Mo. 63178), were separately dissolved in 10 ml of normal saline at room temperature. Each of the five 1000 μg/10 ml samples were stored in sealed, aluminum-Tapped 10 ml vials to prevent exposure to light. No buffers were added to the solutions. The pH of the solutions, measured by a Beckman 40 pH meter (Beckman Instruments, Fullerton, Calif.): Cyanocobalamin=5.75, DTPA=3.78; cyano, methyl and adenosylcobalamin-DTPA analogues were 5.75, 6.10, and 6.19, respectively.

[2] = tested on: Intrinsic Factor (IF); assay: modified intrinsic factor blocking antibody (IFBA) assay; assay type: binding; details: for averaged percent binding to IF: average of five patients, estimated from counts vs Clinical run
Method: (§1) Under dim light, 1000 μg of the non-labeled methyl-, adenosyl-, and cyanocobalamin-b-(4-aminobutyl)amide-DTPA, as well as 1000 μg of cyanocobalamin and DTPA (Sigma, St. Louis, Mo. 63178), were separately dissolved in 10 ml of normal saline at room temperature. Each of the five 1000 μg/10 ml samples were stored in sealed, aluminum-Tapped 10 ml vials to prevent exposure to light. No buffers were added to the solutions. The pH of the solutions, measured by a Beckman 40 pH meter (Beckman Instruments, Fullerton, Calif.): Cyanocobalamin=5.75, DTPA=3.78; cyano, methyl and adenosylcobalamin-DTPA analogues were 5.75, 6.10, and 6.19, respectively. To assess in vitro binding to Intrinsic Factor (IF) and Transcobalamins (TC), the intrinsic factor blocking antibody (IFBA) and Unsaturated vitamin B12 Binding Capacity (UBBC) assays were performed with serum randomly obtained from five patients being evaluated for pernicious anemia at the Mayo Clinic. The IFBA and UBBC assays were first performed for clinical purposes as previously described by V. F. Fairbanks et al., Mayo Clin. Proc., 58, 203 (1983); Intrinsic Factor Blocking Antibody [^57Co] Radioassay-Package insert, Diagnostic Products Corp.; D. Grossowicz et al., Proc. Exp. Biol. 109, 604 (1962) and C. Gottlieb et al., Blood 25, 6 (1965). Next, the serum from the same five patients underwent modified IFBA and UBBC assays. Specifically, 1 μl of the five previously described solutions were separately incubated with purified IF or serum, to potentially saturate all IF and TC binding sites. After incubation for 20 minutes at room temperature and for another 20 minutes at 4° C., 500 μl of the stock (1000 μg/l) Cobalt-57-cyanocobalamin (Mallinckrodt Medical. Inc., St. Louis, Mo. 63134) solution was added and the usual IFBA and UBBC protocols were then followed. All supernatant activity was counted for four minutes on a gamma counter (Micromedix 10/20, Huntsville, Ala. 35805).

[3] = tested on: Transcobalamins (TC); assay: modified Unsaturated vitamin B12 Binding Capacity (UBBC) assay; parameters: species or system human; details: for averaged percent binding to the transcobalamin proteins: average of five patients; for UBBC supernatant counts: NSB = counts <100
Method: as §1

[4] = PT 1, negative <1.11, positive (binding to IF) >1.43, indeterminate 1.11-1.43
[5] = PT 2, negative <1.11, positive >1.43
[6] = PT 3, negative <1.11, positive >1.43
[7] = PT 4, negative <1.11, positive >1.43
[8] = PT 5, negative <1.11, positive >1.43
[9] = serum PT 1, preincubated with 1 μl of 1000 μg/10 ml solution, then Co-57-cyanocobalamin, Clinical Run 741

SMILES | pH of the solution [1] | IFBA supernatant counts ([2]; PT 1, Clinical Run 11942.5) [counts] | IFBA value (in parentheses) [2, 4] | IFBA supernatant counts ([2]; PT 2, Clinical Run 11656) [counts] | IFBA value (in parentheses) [2, 5] | IFBA supernatant counts ([2]; PT 3, Clinical Run 11780) [counts] | IFBA value (in parentheses) [2, 6] | IFBA supernatant counts ([2]; PT 4, Clinical Run 11617) [counts] | IFBA value (in parentheses) [2, 7] | IFBA supernatant counts ([2]; PT 5, Clinical Run 11653.5) [counts] | IFBA value (in parentheses) [2, 8] | averaged percent binding to IF [2] [%] | averaged percent binding to the transcobalamin proteins [3] [%] | UBBC supernatant counts [3, 9] [counts] | UBBC supernatant counts ([3]; serum PT 2, Clinical Run 632) [counts] | UBBC supernatant counts ([3]; serum PT 3, Clinical Run 2097) [counts] | UBBC supernatant counts ([3]; serum PT 4, Clinical Run 1378) [counts] | UBBC supernatant counts ([3]; serum PT 5, Clinical Run 1682) [counts]
CC1=C2N=C(C=C3N=C(C(C)=C4[N-]C(C(CC(N)=O)C4(C)CCC(=O)NCC(C)OP(=O)([O-])OC4C(CO)OC(n5cnc6cc(C)c(C)cc65)C4O)C4(C)N=C1C(CCC(=O)NCCCCNC(=O)CN(CCN(CCN(CC(=O)O)CC(=O)O)CC(=O)O)CC(=O)O)C4(C)CC(N)=O)C(CCC(N)=O)C3(C)C)C(CCC(N)=O)C2(C)CC(N)=O.[CH3-].[Co+3] (stereo not drawn) [MEB12DTPA, methylcobalamin-b-(4-aminobutyl)-amide-DTPA] | 6.10 | 4279 | (2.77) | 4082 | (2.92) | 4456.5 | (2.66) | 4414 | (2.69) | 4381.5 | (2.77) | 63.2 | 94.0 | 17.1 | 26.8 | 278.9 | 60.9 | 91.1
CC1=C2N=C(C=C3N=C(C(C)=C4[N-]C(C(CC(N)=O)C4(C)CCC(=O)NCC(C)OP(=O)([O-])OC4C(CO)OC(n5cnc6cc(C)c(C)cc65)C4O)C4(C)N=C1C(CCC(=O)NCCCCNC(=O)CN(CCN(CCN(CC(=O)O)CC(=O)O)CC(=O)O)CC(=O)O)C4(C)CC(N)=O)C(CCC(N)=O)C3(C)C)C(CCC(N)=O)C2(C)CC(N)=O.[CH2-]C1OC(n2cnc3c(N)ncnc32)C(O)C1O.[Co+3] (stereo not drawn) [ADB12DTPA, adenosylcobalamin-b-(4-aminobutyl)-amide-DTPA] | 6.19 | 6758.5 | (2.30) | 6841.5 | (1.74) | 6828.5 | (1.74) | 7046.5 | (1.64) | 7096.5 | (1.72) | 41.0 | 90.4 | 54.6 | 62.6 | 590.3 | 126.9 | 163.9
CC1=C2N=C(C=C3N=C(C(C)=C4[N-]C(C(CC(N)=O)C4(C)CCC(=O)NCC(C)OP(=O)([O-])OC4C(CO)OC(n5cnc6cc(C)c(C)cc65)C4O)C4(C)N=C1C(CCC(=O)NCCCCNC(=O)CN(CCN(CCN(CC(=O)O)CC(=O)O)CC(=O)O)CC(=O)O)C4(C)CC(N)=O)C(CCC(N)=O)C3(C)C)C(CCC(N)=O)C2(C)CC(N)=O.[C-]#N.[Co+3] (stereo not drawn) [CNB12DTPA, cyanocobalamin-b-(4-aminobutyl)-amide-DTPA] | 5.75 | 5151 | (2.30) | 5133.5 | (2.31) | 5338.5 | (2.22) | 6002.5 | (1.98) | 5973.5 | (1.99) | 52.9 | 66.4 | 222.6 | 216.9 | 713.3 | 433.2 | 643.2
